# T1: OATP4A1 (Homo sapiens, UniProt Q96BD0)
# T1 sequence (Q96BD0 1-722): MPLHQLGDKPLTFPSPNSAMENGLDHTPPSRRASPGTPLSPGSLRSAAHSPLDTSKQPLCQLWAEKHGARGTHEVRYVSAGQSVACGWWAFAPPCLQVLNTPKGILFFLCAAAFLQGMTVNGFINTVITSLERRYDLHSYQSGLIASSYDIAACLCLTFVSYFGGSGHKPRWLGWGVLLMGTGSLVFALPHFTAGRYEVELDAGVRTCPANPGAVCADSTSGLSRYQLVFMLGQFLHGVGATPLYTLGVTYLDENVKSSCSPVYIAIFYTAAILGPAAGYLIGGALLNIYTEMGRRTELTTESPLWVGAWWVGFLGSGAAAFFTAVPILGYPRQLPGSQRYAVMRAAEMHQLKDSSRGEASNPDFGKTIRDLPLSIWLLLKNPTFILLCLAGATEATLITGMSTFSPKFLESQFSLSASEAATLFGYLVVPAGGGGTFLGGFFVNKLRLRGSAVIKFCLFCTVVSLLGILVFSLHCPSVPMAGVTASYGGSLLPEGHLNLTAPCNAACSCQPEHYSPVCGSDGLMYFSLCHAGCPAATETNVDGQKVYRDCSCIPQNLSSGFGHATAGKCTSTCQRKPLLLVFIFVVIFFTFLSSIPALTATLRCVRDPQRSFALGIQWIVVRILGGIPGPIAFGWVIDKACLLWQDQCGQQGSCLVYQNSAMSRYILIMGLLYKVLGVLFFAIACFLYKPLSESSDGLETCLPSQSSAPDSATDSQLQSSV
# T2: OATP2B1 (Homo sapiens, UniProt O94956)
# T2 sequence (O94956 1-709): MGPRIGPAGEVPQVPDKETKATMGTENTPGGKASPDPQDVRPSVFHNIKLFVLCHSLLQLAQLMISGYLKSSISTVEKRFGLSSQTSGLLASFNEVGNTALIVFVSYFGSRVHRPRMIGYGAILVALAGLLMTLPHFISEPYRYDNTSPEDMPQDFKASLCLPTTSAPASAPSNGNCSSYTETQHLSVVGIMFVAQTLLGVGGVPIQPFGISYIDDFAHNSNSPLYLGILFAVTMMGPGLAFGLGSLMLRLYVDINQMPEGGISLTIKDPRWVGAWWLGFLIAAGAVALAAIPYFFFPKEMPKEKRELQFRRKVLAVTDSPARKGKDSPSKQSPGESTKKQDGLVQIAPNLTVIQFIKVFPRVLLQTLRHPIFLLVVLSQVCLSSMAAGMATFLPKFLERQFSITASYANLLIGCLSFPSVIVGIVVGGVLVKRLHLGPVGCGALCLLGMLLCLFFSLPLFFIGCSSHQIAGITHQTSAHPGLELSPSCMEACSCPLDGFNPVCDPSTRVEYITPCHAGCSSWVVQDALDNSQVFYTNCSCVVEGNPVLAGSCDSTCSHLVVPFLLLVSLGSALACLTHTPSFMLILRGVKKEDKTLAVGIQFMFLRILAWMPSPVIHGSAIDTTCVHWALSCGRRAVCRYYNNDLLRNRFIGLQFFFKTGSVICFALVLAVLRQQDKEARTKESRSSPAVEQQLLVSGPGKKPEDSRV
# T3: OATP1B1 (Homo sapiens, UniProt Q9Y6L6)
# T3 sequence (Q9Y6L6 1-691): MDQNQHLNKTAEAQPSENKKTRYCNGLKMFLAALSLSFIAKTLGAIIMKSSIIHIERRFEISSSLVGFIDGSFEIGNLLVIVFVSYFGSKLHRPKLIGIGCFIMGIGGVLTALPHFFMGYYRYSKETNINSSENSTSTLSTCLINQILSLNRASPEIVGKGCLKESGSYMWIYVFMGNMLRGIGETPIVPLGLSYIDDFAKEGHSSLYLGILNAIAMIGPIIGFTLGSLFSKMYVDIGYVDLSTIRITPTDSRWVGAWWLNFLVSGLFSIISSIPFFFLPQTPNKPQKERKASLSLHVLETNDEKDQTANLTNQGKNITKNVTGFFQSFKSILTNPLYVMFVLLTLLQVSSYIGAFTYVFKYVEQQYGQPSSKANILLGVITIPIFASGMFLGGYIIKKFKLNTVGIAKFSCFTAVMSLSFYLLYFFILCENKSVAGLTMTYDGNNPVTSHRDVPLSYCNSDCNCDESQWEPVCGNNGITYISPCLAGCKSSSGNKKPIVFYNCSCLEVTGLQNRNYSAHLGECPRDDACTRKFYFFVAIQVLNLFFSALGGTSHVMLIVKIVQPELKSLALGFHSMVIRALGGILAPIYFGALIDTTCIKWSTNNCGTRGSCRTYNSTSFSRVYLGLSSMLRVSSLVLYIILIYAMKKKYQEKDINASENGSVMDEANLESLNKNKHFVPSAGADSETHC
# T4: OATP1B3 (Homo sapiens, UniProt Q9NPD5)
# T4 sequence (Q9NPD5 1-702): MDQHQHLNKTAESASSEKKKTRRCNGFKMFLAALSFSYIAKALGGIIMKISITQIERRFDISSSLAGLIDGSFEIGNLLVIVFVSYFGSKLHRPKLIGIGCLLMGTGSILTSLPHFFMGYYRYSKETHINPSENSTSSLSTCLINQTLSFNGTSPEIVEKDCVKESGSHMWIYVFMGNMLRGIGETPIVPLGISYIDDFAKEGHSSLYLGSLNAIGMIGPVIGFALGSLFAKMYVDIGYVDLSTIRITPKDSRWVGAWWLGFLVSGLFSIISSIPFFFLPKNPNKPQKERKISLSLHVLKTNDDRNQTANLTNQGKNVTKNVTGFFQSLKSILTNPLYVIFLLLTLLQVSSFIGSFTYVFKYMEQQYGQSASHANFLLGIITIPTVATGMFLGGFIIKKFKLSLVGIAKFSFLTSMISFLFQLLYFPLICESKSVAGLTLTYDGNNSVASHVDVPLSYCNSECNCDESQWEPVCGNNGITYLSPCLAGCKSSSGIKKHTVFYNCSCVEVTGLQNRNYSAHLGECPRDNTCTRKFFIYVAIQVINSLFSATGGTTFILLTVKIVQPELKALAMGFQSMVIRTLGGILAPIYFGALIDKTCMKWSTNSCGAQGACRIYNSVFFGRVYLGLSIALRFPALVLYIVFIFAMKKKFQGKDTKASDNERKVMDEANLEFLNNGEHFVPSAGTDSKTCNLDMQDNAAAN
# T5: BCRP (Homo sapiens, UniProt Q9UNQ0)
# T5 sequence (Q9UNQ0 1-655): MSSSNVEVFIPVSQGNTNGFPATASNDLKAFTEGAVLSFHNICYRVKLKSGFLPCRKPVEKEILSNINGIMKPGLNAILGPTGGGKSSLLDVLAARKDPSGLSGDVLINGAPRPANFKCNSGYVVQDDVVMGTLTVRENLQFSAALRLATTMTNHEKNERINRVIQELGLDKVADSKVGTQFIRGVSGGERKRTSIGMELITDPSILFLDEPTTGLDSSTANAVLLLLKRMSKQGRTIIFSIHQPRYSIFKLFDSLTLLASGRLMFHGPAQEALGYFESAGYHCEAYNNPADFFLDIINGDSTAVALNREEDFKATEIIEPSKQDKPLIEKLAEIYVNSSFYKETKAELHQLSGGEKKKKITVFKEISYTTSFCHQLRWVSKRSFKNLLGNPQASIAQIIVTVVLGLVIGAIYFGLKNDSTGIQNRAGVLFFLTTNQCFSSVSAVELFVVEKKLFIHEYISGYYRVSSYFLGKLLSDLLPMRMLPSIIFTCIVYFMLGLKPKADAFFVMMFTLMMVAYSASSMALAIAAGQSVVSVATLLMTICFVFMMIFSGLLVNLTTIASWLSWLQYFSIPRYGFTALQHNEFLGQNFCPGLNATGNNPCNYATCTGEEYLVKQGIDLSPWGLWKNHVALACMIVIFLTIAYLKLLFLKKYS
# T6: OCT1 (Homo sapiens, UniProt O15245)
# T6 sequence (O15245 1-554): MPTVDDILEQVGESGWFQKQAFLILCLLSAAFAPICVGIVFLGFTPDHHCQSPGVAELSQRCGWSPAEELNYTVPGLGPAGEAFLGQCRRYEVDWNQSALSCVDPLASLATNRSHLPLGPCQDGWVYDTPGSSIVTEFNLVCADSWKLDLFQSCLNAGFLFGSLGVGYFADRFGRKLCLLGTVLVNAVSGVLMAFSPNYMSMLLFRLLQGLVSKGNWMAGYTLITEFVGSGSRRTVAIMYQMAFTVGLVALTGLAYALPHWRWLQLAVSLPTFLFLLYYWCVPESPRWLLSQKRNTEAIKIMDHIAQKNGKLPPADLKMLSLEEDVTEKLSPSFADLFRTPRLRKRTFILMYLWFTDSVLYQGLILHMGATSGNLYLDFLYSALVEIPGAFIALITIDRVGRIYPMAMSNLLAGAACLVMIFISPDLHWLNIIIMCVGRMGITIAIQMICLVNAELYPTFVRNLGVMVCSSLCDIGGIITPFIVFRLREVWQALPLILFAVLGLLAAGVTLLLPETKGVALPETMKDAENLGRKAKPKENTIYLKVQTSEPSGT
# Legend:
# OATP1B1 [1] = conditions: cited from earlier work
# [2] = tested on: OCT/PMAT/MATE transporters; conditions: read-out: IC50 (OCT/PMAT/MATE inhibitor); reported; ref [44]–[47]; cited from earlier work
# OATP4A1 = biological target: T1, OATP4A1; assay: Cellular uptake assay, HEK/OATP4A1 vs HEK empty vector cells; conditions: model substrate at 5 μM (Fig. S2)
# OATP2B1 [3] = biological target: T2, OATP2B1; conditions: model substrate at 5 μM (Fig. S2)
# OATP1B1 [4] = biological target: T3, OATP1B1; conditions: model substrate at 5 μM (Fig. S2)
# OATP1B3 [5] = biological target: T4, OATP1B3; conditions: model substrate at 5 μM (Fig. S2)
# BCRP = biological target: T5, BCRP; assay: Plasma membrane vesicle transport assay, BCRP vesicles; type: in vitro ADME; conditions: model substrate at 5 μM (Fig. S5)
# MRP2 = MRP2 (Homo sapiens, UniProt Q92887); assay: Plasma membrane vesicle transport assay, MRP2 vesicles; conditions: model substrate at 5 μM (Fig. S5)
# OATP2B1 [6] = conditions: read-out: IC50 for OATP2B1; reported; ref [22], [41]–[43]; cited from earlier work
# OATP1B3 [7] = conditions: read-out: IC50 for OATP1B3; reported; ref [22], [41]–[43]; cited from earlier work
# OCT1 = biological target: T6, OCT1; assay: Cellular uptake assay, HEK/OCT1 vs HEK empty vector cells; conditions: model substrate (Fig. S2)
# OAT = conditions: read-out: IC50 (OAT inhibitor); reported; ref [44]–[47]; cited from earlier work
# [8] = substrate: CC(NC(C)(C)C)C(=O)c1cccc(Cl)c1
# Chain of MRP2 (Q92887 whole entry): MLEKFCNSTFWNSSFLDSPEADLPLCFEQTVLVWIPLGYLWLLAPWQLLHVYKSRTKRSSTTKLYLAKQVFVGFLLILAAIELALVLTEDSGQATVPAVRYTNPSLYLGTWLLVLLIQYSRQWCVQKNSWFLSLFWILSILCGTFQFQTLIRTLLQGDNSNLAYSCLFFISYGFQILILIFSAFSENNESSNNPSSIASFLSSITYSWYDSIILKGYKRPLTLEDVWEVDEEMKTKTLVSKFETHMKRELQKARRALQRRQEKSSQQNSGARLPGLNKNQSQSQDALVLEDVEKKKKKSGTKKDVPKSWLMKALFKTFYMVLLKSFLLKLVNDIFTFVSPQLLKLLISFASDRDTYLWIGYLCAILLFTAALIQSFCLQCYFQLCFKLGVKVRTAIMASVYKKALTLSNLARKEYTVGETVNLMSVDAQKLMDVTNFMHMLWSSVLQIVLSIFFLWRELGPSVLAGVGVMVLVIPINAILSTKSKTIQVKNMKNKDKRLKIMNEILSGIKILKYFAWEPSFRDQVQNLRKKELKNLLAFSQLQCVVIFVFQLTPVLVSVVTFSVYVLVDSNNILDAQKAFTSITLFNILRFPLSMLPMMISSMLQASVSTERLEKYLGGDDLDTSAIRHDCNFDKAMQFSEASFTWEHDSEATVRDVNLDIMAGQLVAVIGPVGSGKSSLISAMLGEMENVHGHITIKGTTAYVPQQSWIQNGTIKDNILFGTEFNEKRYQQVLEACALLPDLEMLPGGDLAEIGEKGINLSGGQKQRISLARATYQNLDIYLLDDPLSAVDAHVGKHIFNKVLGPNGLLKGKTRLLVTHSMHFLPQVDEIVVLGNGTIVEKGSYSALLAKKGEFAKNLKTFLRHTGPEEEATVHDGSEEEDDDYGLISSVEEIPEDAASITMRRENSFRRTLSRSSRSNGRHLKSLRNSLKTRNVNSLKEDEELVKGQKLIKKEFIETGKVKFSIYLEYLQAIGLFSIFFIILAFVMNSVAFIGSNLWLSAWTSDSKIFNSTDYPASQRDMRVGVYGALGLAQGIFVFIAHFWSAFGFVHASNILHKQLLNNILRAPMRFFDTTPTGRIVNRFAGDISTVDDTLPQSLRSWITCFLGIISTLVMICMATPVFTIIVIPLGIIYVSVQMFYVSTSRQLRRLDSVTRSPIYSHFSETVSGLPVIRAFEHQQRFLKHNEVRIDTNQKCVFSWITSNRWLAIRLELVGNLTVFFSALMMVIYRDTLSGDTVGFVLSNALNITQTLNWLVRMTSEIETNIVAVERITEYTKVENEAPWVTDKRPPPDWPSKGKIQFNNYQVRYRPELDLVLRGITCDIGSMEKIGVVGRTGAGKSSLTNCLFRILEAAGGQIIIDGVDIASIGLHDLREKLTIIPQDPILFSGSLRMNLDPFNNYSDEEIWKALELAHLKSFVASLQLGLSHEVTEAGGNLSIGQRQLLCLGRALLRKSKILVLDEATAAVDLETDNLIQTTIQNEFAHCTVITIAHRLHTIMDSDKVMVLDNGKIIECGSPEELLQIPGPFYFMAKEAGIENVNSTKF
molecule,measurement,setting,value
COC(=O)[C@H](c1ccccc1Cl)N1CCc2sccc2C1 [Clopidogrel],Inhibition of OATP1B1,OATP1B1 [1]; ref [26],effective inhibitor
"CCN1/C(=C/c2ccc3ccccc3[n+]2CC)C=Cc2ccccc21 [D-22, Decynium-22]",IC50,[2],13800 to 21900 nM
"C[C@]12CC[C@@H]3c4ccc(OS(=O)(=O)O)cc4CC[C@H]3[C@@H]1CCC2=O [E1-3-S, Estrone-3-sulfate, reference compound]",Uptake into HEK/OATP4A1 cells relative to HEK vector control cells,OATP4A1,20 times
same,Uptake into HEK/OATP2B1 cells relative to HEK vector control cells,OATP2B1 [3],42 times
"C[C@]12CC[C@@H]3c4ccc(O)cc4CC[C@H]3[C@@H]1CC[C@@H]2O[C@@H]1O[C@H](C(=O)O)[C@@H](O)[C@H](O)[C@H]1O [E2-17β-G, estradiol-17β-glucuronide, reference compound]",Uptake into CHO/OATP1B1 cells relative to CHO wild-type parent cells,OATP1B1 [4],approximately 6 times
same,Uptake into CHO/OATP1B3 cells relative to CHO wild-type parent cells,OATP1B3 [5],~2 times
same,Uptake into BCRP vesicles in the presence of ATP relative to AMP,BCRP,10–100 times
same,Uptake into MRP2 vesicles in the presence of ATP relative to AMP,MRP2,10–100 times
"CO[C@H]1/C=C/O[C@@]2(C)Oc3c(C)c(O)c4c(O)c(c(/C=N/N5CCN(C)CC5)c(O)c4c3C2=O)NC(=O)/C(C)=C\C=C\[C@H](C)[C@H](O)[C@@H](C)[C@@H](O)[C@@H](C)[C@H](OC(C)=O)[C@@H]1C [RIF, Rifampin]",IC50,"OATP1B1 [1]; read-out: IC50 for OATP1B1, reported, ref [22], [41]–[43]",1500 to 3250 nM
same,IC50,OATP2B1 [6],2100 nM
same,IC50,OATP1B3 [7],1500 to 2600 nM
"C[n+]1ccc(-c2ccccc2)cc1 [[^3H]-MPP^+, reference compound]",Uptake into OCT1-overexpressing cells relative to vector control cells,OCT1,15 times
CCCN(CCC)S(=O)(=O)c1ccc(C(=O)O)cc1 [probenecid],IC50,OAT,3100 to 7400 nM
OATP1B1 (Homo sapiens) (protein) MDQNQHLNKTAEAQPSENKKTRYCNGLKMFLAALSLSFIAKTLGAIIMKSSIIHIERRFEISSSLVGFIDGSFEIGNLLVIVFVSYFGSKLHRPKLIGIGCFIMGIGGVLTALPHFFMGYYRYSKETNINSSENSTSTLSTCLINQILSLNRASPEIVGKGCLKESGSYMWIYVFMGNMLRGIGETPIVPLGLSYIDDFAKEGHSSLYLGILNAIAMIGPIIGFTLGSLFSKMYVDIGYVDLSTIRITPTDSRWVGAWWLNFLVSGLFSIISSIPFFFLPQTPNKPQKERKASLSLHVLETNDEKDQTANLTNQGKNITKNVTGFFQSFKSILTNPLYVMFVLLTLLQVSSYIGAFTYVFKYVEQQYGQPSSKANILLGVITIPIFASGMFLGGYIIKKFKLNTVGIAKFSCFTAVMSLSFYLLYFFILCENKSVAGLTMTYDGNNPVTSHRDVPLSYCNSDCNCDESQWEPVCGNNGITYISPCLAGCKSSSGNKKPIVFYNCSCLEVTGLQNRNYSAHLGECPRDDACTRKFYFFVAIQVLNLFFSALGGTSHVMLIVKIVQPELKSLALGFHSMVIRALGGILAPIYFGALIDTTCIKWSTNNCGTRGSCRTYNSTSFSRVYLGLSSMLRVSSLVLYIILIYAMKKKYQEKDINASENGSVMDEANLESLNKNKHFVPSAGADSETHC,Km,[8],31 ± 7 µM
same,Vmax,[8],1407±91 pmol/mg protein/min

# From article PMC7451048 (Drug metabolism letters, 2019)
